Assay results published in patent US20160130234A1, “PHARMACEUTICAL COMPOSITIONS BASED ON PHOTOCHEMICALLY STABLE SILVER COMPLEXES, CHLOREXIDINE AND CATIONIC SURFACTANTS” (PAVIA FARMACEUTICI S.R.L., priority 2013, published 2016).

Tests used:
[1] = system: Staphylococcus epidermidis; conditions: cited from earlier work
sepsis = conditions: burns treated with silver nitrate; decreased from 60%; cited from earlier work
[2] = system: Staphylococcus aureus (ATCC-6538) and Pseudomonas aeruginosa (ATCC-15442); assay: quantitative suspension test for bactericidal activity, UNI EN 1272:2009; type: cell-based
Description: The bactericidal activity was tested on aqueous solutions of the complex of Example 1, (i.e. where the ligand L coordinated to the silver ion is the 2-Mercapto-5-benzimidazolesulfonic acid sodium salt).
The bactericidal activity tests were carried out according to UNI EN 1272:2009 and UNI EN 13697:2001 standards, which makes reference to chemical disinfectants and antiseptics, by using the following test organism: Staphylococcus aureus (ATCC-6538), as representative of Gram-positive bacteria and Pseudomonas aeruginosa (ATCC-15442), as representative of Gram-negative bacteria.

[H]/N=C(\N/C(=N/[H])NCCCCCCNC(=N)NC(=N)Nc1ccc(Cl)cc1)Nc1ccc(Cl)cc1 [chlorhexidine]
development of resistance by Staphylococcus epidermidis [1]: no evidence of resistance was observed

polyhexametylene biguanide
development of resistance by Staphylococcus epidermidis [1]: no evidence of resistance was observed

O=[N+]([O-])[O-].[Ag+] [Silver Nitrate]
number of deaths that were a result of sepsis (sepsis): 28% | antimicrobial activity after exposure to ambient light ([2]; after exposure to ambient light, reduction of Ag^+ to Ag^∘): lose the antimicrobial activity | reduction of bacterial count compared with the silver complex ([2]; solution of comparable concentration): analogously
